# Where a name gives a salt, the structure may show the parent alone.
# Key:
# Type in all cases: physicochemical
# [1] = Stability of the active substance
# [2] = Hygroscopicity of the active substance
# [3] = Solubility in physiologically acceptable solvents
smiles,measurement,setting,value
"NC(N)=NC(=O)c1ccc(N2CCN(C(=O)c3ccc[nH]3)CC2)c(C(F)(F)F)c1 [formula 1, 4-[4-(2-pyrrolylcarbonyl)-1-piperazinyl]-3-trifluoromethylbenzoylguanidine hydrochloride]",stability,[1],high degree of stability
same,hygroscopicity,[2],not hygroscopic
same,solubility,[3],dissolves readily
